Assays:
[1] = target: T1, potassium ion channel hERG (human Ether-á-go-go-Related Gene) (Homo sapiens, UniProt Q12809); experiment: Assay 5 - hERG assay (SyncroPatch 384PE patch clamp, CHO cells); format: cell-based; settings: geometric mean; CHO cells over-expressing hERG; read-out: Assay 5 (hERG Hu CHO IF EPh CR-Syncro) GMean IC50
T1 construct: expressed in transfected cells; host or cells: Chinese hamster ovary K1 (CHO)
Experimental: Assay 5—hERG Assay (Human Ether-á-go-go-Related Gene)
This assay (human Ether-á-go-go-Related Gene) measures activity of the compounds at the potassium ion channel hERG (human Ether-á-go-go-Related Gene).
Experiments were performed on the SyncroPatch 384PE high throughput patch clamp platform at room temperature and medium resistance chips with 4 patch holes per site. Chinese hamster ovary K1 (CHO) cell lines over-expressing the ion channel of choice (hERG) were used in assay-ready format and kept in liquid nitrogen or were used from live culture. Cells were either thawed and diluted in HBSS or were detached from flasks and resuspended in HBSS. HBSS comprised 140 mM NaCl, 4 mM KCl, 10 mM HEPES and 5 mM Glucose (pH7.4). The internal patch clamp solution was KF 120 mM, KCl 20 mM, HEPES 10 mM, EGTA 10 mM, and 25 PM Escin (pH 7.2). After the sealing process was complete, the external solution was exchanged for external patch clamp solution comprising NaCl 80 mM, KCl 4 mM, HEPES 10 mM, CaCl2 2 mM, MgCl2 1 mM, glucose 5 mM, and NMDG 60 mM (pH 7.4). All solutions were stored at room temperature, except Escin, which was stored at 4° C. All test compounds were dispensed in greiner-bio 384 well plates and tested in a 6 point cumulative assay (final DMSO concentration 0.33%). Only wells that passed previously agreed acceptance criteria for this platform were used in this analysis (30 MegaOhm seal resistance, Z prime >0.4 and current size >0.2 nA).

[2] = target: GSK3β (Glycogen synthase kinase-3 beta) (Homo sapiens, UniProt P49841); experiment: Assay 6 - GSK3β assay (ThermoFisher Z-Lyte); format: biochemical; settings: geometric mean; ATP Conc: 10 μM; read-out: Assay 6 (GSK3β FRET-Z-Lyte CR) GMean IC50 (μM) ATP Conc: 10
GSK3β (Glycogen synthase kinase-3 beta), sequence (P49841 whole entry): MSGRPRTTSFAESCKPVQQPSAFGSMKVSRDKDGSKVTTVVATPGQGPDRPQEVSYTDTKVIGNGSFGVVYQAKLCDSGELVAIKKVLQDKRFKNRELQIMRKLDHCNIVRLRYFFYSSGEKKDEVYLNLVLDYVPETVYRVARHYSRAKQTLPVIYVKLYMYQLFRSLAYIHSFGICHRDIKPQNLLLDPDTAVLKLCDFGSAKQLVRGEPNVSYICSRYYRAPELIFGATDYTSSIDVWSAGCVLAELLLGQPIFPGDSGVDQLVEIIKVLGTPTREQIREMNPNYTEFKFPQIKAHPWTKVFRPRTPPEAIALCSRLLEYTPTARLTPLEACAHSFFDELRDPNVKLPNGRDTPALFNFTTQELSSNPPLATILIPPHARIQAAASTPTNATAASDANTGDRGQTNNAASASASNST
Experimental: Assay 6—GSK3β Assay (ThermoFisher Assay)
This assay measures the activity of the compounds at GSK3β (Glycogen synthase kinase-3 beta).
The test compounds were screened in 1% DMSO (final) in the well. For 10 point titrations, 3-fold serial dilutions are conducted from the starting concentration of 10 μM.
Bar-coded Corning, low volume NBS, black 384-well plate • 1. 2.5 μL—4× Test Compound or 100 nL 100× plus 2.4 μL kinase buffer • 2. 5 μL—2× Peptide/Kinase Mixture • 3. 2.5 μL—4×ATP Solution • 4. 30-second plate shake • 5. 60-minute Kinase Reaction incubation at room temperature • 6. 5 μL—Development Reagent Solution • 7. 30-second plate shake • 8. 60-minute Development Reaction incubation at room temperature • 9. Read on fluorescence plate reader and analyse the data
In step 2, the 2×GSK3β (GSK3 beta)/Ser/Thr (Glycogen synthase kinase-3 beta/Serine/Threonine) 09 mixture is prepared in 50 mM HEPES (4-(2-hydroxyethyl)-1-piperazineethanesulfonic acid) pH 7.5, 0.01% BRIJ-35, 10 mM MgCl2, 1 mM EGTA (egtazic acid). The final 10 μL Kinase Reaction consists of 0.22-0.92 ng GSK3β (GSK3 beta) and 2 μM Ser/Thr 09 in 50 mM HEPES pH 7.5, 0.01% BRIJ-35, 10 mM MgCl2, 1 mM EGTA.
In step 3 the ATP Solution is diluted to a 4× working concentration in Kinase Buffer (50 mM HEPES pH 7.5, 0.01% BRIJ-35, 10 mM MgCl2, 1 mM EGTA).
In Step 6 the Development Reagent is diluted 1:512 in Development Buffer (10× Novel PKC Lipid Mix: 2 mg/mL Phosphatidyl Serine, 0.2 mg/mL DAG in 20 mM HEPES, pH 7.4, 0.3% CHAPS).
SelectScreen® Kinase Profiling Service uses XLfit from IDBS. The dose response curve is curve fit to model number 205 (sigmoidal dose-response model).

PCSK9 = PCSK9 (Homo sapiens, UniProt Q8NBP7, G670E/V474I); experiment: biochemical
PCSK9, sequence (Q8NBP7 with tags, fused parts or gaps V474I/G670E): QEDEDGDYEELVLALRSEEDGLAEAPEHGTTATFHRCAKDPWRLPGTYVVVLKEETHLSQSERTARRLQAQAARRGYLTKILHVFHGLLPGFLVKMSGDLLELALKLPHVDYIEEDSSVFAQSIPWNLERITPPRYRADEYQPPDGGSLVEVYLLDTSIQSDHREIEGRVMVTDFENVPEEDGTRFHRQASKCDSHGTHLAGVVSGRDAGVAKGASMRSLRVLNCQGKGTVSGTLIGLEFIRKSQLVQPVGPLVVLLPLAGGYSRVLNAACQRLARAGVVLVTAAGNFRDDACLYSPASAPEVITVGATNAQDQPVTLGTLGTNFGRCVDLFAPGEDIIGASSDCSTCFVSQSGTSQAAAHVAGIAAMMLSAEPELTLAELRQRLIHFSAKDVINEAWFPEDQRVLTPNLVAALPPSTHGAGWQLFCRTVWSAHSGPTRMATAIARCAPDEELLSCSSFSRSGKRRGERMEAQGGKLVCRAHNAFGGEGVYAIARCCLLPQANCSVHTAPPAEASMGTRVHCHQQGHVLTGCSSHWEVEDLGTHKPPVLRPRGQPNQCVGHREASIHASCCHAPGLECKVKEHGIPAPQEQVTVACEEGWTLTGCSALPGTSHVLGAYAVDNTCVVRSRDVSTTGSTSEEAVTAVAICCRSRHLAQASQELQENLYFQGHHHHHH

T1 sequence (Q12809 whole entry): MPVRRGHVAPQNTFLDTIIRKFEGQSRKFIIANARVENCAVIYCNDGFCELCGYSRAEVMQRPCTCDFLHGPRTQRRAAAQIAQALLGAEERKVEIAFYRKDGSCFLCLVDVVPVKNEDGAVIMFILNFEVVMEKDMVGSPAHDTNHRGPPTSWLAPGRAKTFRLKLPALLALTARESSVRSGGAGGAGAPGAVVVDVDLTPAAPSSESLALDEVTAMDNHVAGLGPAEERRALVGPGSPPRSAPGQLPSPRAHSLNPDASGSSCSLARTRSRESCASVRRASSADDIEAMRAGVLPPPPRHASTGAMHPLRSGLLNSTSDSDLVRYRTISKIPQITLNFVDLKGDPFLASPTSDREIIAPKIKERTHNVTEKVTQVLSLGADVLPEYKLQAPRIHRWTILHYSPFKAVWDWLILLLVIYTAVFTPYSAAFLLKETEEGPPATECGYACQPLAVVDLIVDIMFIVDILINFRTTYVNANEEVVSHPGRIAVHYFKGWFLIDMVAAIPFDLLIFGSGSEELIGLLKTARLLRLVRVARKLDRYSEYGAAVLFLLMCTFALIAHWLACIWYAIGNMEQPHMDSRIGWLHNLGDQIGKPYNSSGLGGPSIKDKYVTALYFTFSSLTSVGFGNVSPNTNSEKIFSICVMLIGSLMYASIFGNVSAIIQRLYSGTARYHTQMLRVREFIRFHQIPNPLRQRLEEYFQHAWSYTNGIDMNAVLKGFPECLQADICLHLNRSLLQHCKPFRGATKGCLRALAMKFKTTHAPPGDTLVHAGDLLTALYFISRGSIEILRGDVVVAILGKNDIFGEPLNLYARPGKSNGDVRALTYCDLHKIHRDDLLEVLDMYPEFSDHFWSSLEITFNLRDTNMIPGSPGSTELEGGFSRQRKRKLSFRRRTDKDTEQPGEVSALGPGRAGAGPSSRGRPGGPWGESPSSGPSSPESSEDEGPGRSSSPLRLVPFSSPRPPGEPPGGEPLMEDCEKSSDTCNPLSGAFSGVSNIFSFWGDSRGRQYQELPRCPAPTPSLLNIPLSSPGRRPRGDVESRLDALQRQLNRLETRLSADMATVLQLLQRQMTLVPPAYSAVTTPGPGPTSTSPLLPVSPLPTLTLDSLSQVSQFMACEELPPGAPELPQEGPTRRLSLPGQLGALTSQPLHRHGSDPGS

Compound | IC50 [1] | IC50 [2] | IC50 (PCSK9)
Cc1nc(N[C@H]2CC[C@H](Nc3ccc(-n4ccccc4=O)cn3)C2)cnc1OC(F)F [Example 91, 6′-(((1S,3S)-3-((5-(Difluoromethoxy)-6-methylpyrazin-2-yl)amino)cyclopentyl)amino)-2H-[1,3′-bipyridin]-2-one] | 9.6 µM | > 10 µM | 0.436 µM
N#Cc1ccc(=O)n(-c2ccc(N[C@H]3CC[C@H](Nc4cnc(C5CC5)cn4)C3)nc2)c1 [Example 110, 6′-(((1S,3S)-3-((5-Cyclopropylpyrazin-2-yl)amino)cyclopentyl)amino)-2-oxo-2H-[1,3′-bipyridine]-5-carbonitrile] | 25.3 µM | > 10 µM | 0.048 µM
Cc1cnc(N[C@H]2CC[C@H](Nc3ccc(N4C(=O)CCc5cccnc54)cn3)C2)cn1 [Example 276, 1-(6-(((1S,3S)-3-((5-Methylpyrazin-2-yl)amino)cyclopentyl)amino)pyridin-3-yl)-3,4-dihydro-1,8-naphthyridin-2 (1H)-one] | > 40 µM | > 10 µM | 0.08 µM
CSc1cnc(N[C@H]2CC[C@H](Nc3ccc(-n4ccccc4=O)cn3)C2)cn1 [Example 162, 6′-(((1S,3S)-3-((5-(Methylthio)pyrazin-2-yl)amino)cyclopentyl)amino)-2H-[1,3′-bipyridin]-2-one] | > 40.1 µM | > 10 µM | 0.042 µM
Cc1ncc(N[C@H]2CC[C@H](Nc3ccc(-n4cc(Cl)ccc4=O)cn3)C2)nc1C [Example 17, 5-Chloro-6′-(((1S,3S)-3-((5,6-dimethylpyrazin-2-yl)amino)cyclopentyl)amino)-2H-[1,3′-bipyridin]-2-one] | > 40 µM | > 10 µM | 0.053 µM
COc1ccc(=O)n(-c2ccc(N[C@H]3CC[C@H](Nc4cnc(C)cn4)C3)nc2)c1 [Example 40, 5-Methoxy-6′-(((1S,3S)-3-((5-methylpyrazin-2-yl)amino)cyclopentyl)amino)-2H-[1,3′-bipyridin]-2-one] | 35.5 µM | 0.192 µM | 0.067 µM
O=c1ccc(Cl)cn1-c1ccc(N[C@H]2CC[C@H](Nc3cnc(Cl)cn3)C2)nc1 [Example 29, 5-Chloro-6′-(((1S,3S)-3-((5-chloropyrazin-2-yl)amino)cyclopentyl)amino)-2H-[1,3′-bipyridin]-2-one] | 11.1 µM | > 10 µM | 0.014 µM
O=C1CC[C@H](CO)N1c1ccc(N[C@H]2CC[C@H](Nc3cnc(OC(F)F)cn3)C2)nc1 [Example 77, (R)-1-(6-(((1S,3S)-3-((5-(Difluoromethoxy)pyrazin-2-yl)amino)cyclopentyl)amino)pyridin-3-yl)-5-(hydroxymethyl)pyrrolidin-2-one] | > 40 µM | > 10 µM | 1.53 µM
Cc1ncc(N[C@H]2CC[C@H](Nc3ccc(N4CC(=O)N(C)C4=O)cn3)C2)nc1C [Example 16, 1-(6-(((1S,3S)-3-((5,6-Dimethylpyrazin-2-yl)amino)cyclopentyl)amino)pyridin-3-yl)-3-methylimidazolidine-2,4-dione] | > 40 µM | > 10 µM | 0.103 µM
Cc1cnc(N[C@H]2CC[C@H](Nc3ccc(-n4nc(Cl)ccc4=O)cn3)C2)cn1 [Example 233, 6-Chloro-2-(6-(((1S,3S)-3-((5-methylpyrazin-2-yl)amino)cyclopentyl)amino)pyridin-3-yl)pyridazin-3 (2H)-one] | > 40.1 µM | > 10 µM | 0.024 µM
O=c1[nH]ccnc1N[C@H]1CC[C@H](Nc2ccc(-n3ccccc3=O)cn2)C1 [Example 252, 6′-(((1S,3S)-3-((3-Oxo-3,4-dihydropyrazin-2-yl)amino)cyclopentyl)amino)-2H-[1,3′-bipyridin]-2-one] | > 40.1 µM | > 10 µM | 2.58 µM
N#Cc1ccc(=O)n(-c2ccc(N[C@H]3CC[C@H](Nc4cnc(Cl)cn4)C3)nc2)c1 [Example 99, 6′-(((1S,3S)-3-((5-Chloropyrazin-2-yl)amino)cyclopentyl)amino)-2-oxo-2H-[1,3′-bipyridine]-5-carbonitrile] | 19.9 µM | > 10 µM | 0.04 µM
Cc1cnc(N[C@H]2CC[C@H](Nc3ccc(-n4cc(C#N)ccc4=O)cn3)C2)cn1 [Example 49, 6′-(((1S,3S)-3-((5-Methylpyrazin-2-yl)amino)cyclopentyl)amino)-2-oxo-2H-[1,3′-bipyridine]-5-carbonitrile] | > 40 µM | > 10 µM | 0.058 µM
O=c1ccc(Cl)cn1-c1ccc(N[C@H]2CC[C@H](Nc3cnc(OC(F)F)cn3)C2)nc1 [Example 83, 5-Chloro-6′-(((1S,3S)-3-((5-(difluoromethoxy)pyrazin-2-yl)amino)cyclopentyl)amino)-2H-[1,3′-bipyridin]-2-one] | 5 µM | > 10 µM | 0.044 µM
COC(=O)CSc1cnc(N[C@H]2CC[C@H](Nc3ccc(-n4ccccc4=O)cn3)C2)cn1 [Example 164, Methyl 2-((5-(((1S,3S)-3-((2-oxo-2H-[1,3′-bipyridin]-6′-yl)amino)cyclopentyl)amino)pyrazin-2-yl)thio)acetate] | > 40.1 µM | > 10 µM | 0.451 µM
Cc1ncc(N[C@H]2CC[C@H](Nc3ccc(-n4cc(C#N)ccc4=O)cn3)C2)nc1C [Example 48, 6′-(((1S,3S)-3-((5,6-Dimethylpyrazin-2-yl)amino)cyclopentyl)amino)-2-oxo-2H-[1,3′-bipyridine]-5-carbonitrile] | 18.4 µM | > 10 µM | 0.113 µM
COc1cccn(-c2ccc(N[C@H]3CC[C@H](Nc4cnc(C)cn4)C3)nc2)c1=O (single isomer, unassigned) [Example 171] | > 40.1 µM | 2.1 µM | 0.602 µM
N#Cc1cccn(-c2ccc(N[C@H]3CC[C@H](Nc4cnc(OC(F)F)cn4)C3)nc2)c1=O [Example 90, 6′-(((1S,3S)-3-((5-(Difluoromethoxy)pyrazin-2-yl)amino)cyclopentyl)amino)-2-oxo-2H-[1,3′-bipyridine]-3-carbonitrile] | 11.7 µM | > 10 µM | 0.015 µM
Cc1cnc(N[C@H]2CC[C@H](Nc3ccc(-n4nccc(C)c4=O)cn3)C2)cn1 [Example 227, 4-Methyl-2-(6-(((1S,3S)-3-((5-methylpyrazin-2-yl)amino)cyclopentyl)amino)pyridin-3-yl)pyridazin-3 (2H)-one] | > 40.1 µM | > 10 µM | 0.012 µM
Cc1cnc(N[C@H]2CC[C@H](Nc3ccc(-n4cccc(-c5c[nH]nn5)c4=O)cn3)C2)cn1 [Example 205, 6′-(((1S,3S)-3-((5-Methylpyrazin-2-yl)amino)cyclopentyl)amino)-3-(1H-1,2,3-triazol-4-yl)-2H-[1,3′-bipyridin]-2-one] | > 40.1 µM | > 10 µM | 0.007 µM
Cc1cnc(N[C@H]2CC[C@H](Nc3ccc(N4C(=O)CN(C)C4=O)cn3)C2)cn1 [Example 41, 1-Methyl-3-(6-(((1S,3S)-3-((5-methylpyrazin-2-yl)amino)cyclopentyl)amino)pyridin-3-yl)imidazolidine-2,4-dione] | > 40 µM | > 10 µM | 0.057 µM

From US20240217951A1, “PCSK9 INHIBITORS AND METHODS OF USE THEREOF” (AstraZeneca AB, priority 2022, published 2024)
